Experimental findings from ChEMBL document CHEMBL5212743, “Selectivity Literature for EUbOPEN Chemogenomics Library wave 3” (2023) are described below.

The target in assay [1] is Alpha-2B adrenergic receptor (Homo sapiens, UniProt P18089). The experiment in a line: Selectivity interaction (GPCR panel (PDSP screen)) EUB0000309b ADRA2B.
For assay [2], the target named is T1, Cannabinoid receptor 1 (Homo sapiens, UniProt P21554). The experiment in a line: Selectivity interaction (CNR1 functional assay (GTPyS binding)) EUB0000291b CNR1.
T1 sequence (P21554 whole entry): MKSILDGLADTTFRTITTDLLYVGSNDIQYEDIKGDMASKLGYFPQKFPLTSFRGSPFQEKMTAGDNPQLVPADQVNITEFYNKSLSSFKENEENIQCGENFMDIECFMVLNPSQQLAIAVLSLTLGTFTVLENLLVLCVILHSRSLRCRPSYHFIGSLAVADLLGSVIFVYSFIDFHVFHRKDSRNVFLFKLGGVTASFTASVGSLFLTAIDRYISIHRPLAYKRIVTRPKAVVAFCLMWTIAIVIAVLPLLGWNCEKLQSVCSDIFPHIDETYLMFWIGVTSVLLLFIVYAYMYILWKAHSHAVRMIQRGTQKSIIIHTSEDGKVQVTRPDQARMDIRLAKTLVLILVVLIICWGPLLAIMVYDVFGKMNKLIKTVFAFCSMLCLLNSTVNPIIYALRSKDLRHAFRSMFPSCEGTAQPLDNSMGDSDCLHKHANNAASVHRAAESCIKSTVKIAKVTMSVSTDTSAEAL
Assay [3] concerns the target T1, Cannabinoid receptor 1. The assay is described as follows: Selectivity interaction (Eurofins-Panlabs radioligand binding assay) EUB0000291b CNR1. To be noted: at 10 µM.
Assay [4] addresses Proteinase-activated receptor 4 (Homo sapiens, UniProt Q96RI0). The assay is described as follows: Selectivity interaction (Functional cellular assay (using HEK cells expressing F2RL3)) EUB0000291b F2RL3.
Assay [5] addresses Serine/threonine-protein kinase DCLK2 (Homo sapiens) (UniProt Q8N568). The assay is described as follows: Selectivity interaction (KinomeScan (DiscoverX)) EUB0000291b DCLK2. To be noted: at 1 µM.
For assay [6], the target named is Cyclin-dependent kinase 4 (Homo sapiens) (UniProt P11802). The experiment in a line: Selectivity interaction (KinomeScan (DiscoverX)) EUB0000291b CDK4. Particulars: at 1 µM.
Cyclin-dependent kinase 4 (Homo sapiens), sequence (P11802 whole entry): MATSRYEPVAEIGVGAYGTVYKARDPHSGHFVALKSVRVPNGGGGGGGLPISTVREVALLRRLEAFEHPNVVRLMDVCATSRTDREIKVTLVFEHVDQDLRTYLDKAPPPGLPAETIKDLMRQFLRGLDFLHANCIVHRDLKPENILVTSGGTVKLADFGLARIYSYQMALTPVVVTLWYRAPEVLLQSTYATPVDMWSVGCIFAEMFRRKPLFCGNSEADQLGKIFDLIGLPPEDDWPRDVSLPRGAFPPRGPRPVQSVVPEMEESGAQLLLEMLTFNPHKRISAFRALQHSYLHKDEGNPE
Assay [7] addresses Cyclin-dependent kinase 18 (Homo sapiens) (UniProt Q07002). The experiment in a line: Selectivity interaction (KinomeScan (DiscoverX)) EUB0000291b CDK18. To be noted: at 1 µM.
Assay [8] concerns the target Non-receptor tyrosine-protein kinase TYK2 (Homo sapiens, UniProt P29597). The experiment in a line: Selectivity interaction (KinomeScan (DiscoverX)) EUB0000291b TYK2. Particulars: at 1 µM.
Assay [9] has as its target Cyclin-dependent kinase 11A (Homo sapiens) (UniProt Q9UQ88). The experiment in a line: Selectivity interaction (KinomeScan (DiscoverX)) EUB0000291b CDK11A. To be noted: at 1 µM.
Assay [10] has as its target Mitogen-activated protein kinase kinase kinase 12 (Homo sapiens) (UniProt Q12852). The experiment in a line: Selectivity interaction (KinomeScan (DiscoverX)) EUB0000291b MAP3K12. To be noted: at 1 µM.
Assay [11] addresses T2, Gamma-aminobutyric acid receptor subunit alpha-1 (Homo sapiens, UniProt P14867).
T2 sequence (P14867 whole entry): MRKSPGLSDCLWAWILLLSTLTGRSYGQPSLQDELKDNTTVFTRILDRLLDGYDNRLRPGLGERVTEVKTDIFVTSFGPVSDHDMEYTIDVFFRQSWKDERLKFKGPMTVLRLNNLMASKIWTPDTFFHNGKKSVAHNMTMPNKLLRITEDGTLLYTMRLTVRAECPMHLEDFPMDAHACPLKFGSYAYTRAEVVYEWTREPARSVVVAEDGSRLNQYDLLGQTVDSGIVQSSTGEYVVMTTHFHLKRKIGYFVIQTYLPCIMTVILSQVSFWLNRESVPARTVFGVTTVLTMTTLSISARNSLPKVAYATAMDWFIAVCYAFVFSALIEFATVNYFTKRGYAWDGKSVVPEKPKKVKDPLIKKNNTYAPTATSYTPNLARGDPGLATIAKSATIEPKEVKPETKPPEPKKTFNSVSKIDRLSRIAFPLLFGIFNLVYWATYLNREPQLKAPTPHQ
The experiment in a line: Selectivity interaction (GPCR panel (PDSP screen)) EUB0000587a GABRA1.

Assay [12] addresses T2, Gamma-aminobutyric acid receptor subunit alpha-1. The assay is described as follows: Selectivity interaction (GPCR panel (PDSP screen)) EUB0000548a GABRA1.
In assay [13] the target is T3, Myosin-IIIb (Homo sapiens) (UniProt Q8WXR4).
T3 sequence (whole entry): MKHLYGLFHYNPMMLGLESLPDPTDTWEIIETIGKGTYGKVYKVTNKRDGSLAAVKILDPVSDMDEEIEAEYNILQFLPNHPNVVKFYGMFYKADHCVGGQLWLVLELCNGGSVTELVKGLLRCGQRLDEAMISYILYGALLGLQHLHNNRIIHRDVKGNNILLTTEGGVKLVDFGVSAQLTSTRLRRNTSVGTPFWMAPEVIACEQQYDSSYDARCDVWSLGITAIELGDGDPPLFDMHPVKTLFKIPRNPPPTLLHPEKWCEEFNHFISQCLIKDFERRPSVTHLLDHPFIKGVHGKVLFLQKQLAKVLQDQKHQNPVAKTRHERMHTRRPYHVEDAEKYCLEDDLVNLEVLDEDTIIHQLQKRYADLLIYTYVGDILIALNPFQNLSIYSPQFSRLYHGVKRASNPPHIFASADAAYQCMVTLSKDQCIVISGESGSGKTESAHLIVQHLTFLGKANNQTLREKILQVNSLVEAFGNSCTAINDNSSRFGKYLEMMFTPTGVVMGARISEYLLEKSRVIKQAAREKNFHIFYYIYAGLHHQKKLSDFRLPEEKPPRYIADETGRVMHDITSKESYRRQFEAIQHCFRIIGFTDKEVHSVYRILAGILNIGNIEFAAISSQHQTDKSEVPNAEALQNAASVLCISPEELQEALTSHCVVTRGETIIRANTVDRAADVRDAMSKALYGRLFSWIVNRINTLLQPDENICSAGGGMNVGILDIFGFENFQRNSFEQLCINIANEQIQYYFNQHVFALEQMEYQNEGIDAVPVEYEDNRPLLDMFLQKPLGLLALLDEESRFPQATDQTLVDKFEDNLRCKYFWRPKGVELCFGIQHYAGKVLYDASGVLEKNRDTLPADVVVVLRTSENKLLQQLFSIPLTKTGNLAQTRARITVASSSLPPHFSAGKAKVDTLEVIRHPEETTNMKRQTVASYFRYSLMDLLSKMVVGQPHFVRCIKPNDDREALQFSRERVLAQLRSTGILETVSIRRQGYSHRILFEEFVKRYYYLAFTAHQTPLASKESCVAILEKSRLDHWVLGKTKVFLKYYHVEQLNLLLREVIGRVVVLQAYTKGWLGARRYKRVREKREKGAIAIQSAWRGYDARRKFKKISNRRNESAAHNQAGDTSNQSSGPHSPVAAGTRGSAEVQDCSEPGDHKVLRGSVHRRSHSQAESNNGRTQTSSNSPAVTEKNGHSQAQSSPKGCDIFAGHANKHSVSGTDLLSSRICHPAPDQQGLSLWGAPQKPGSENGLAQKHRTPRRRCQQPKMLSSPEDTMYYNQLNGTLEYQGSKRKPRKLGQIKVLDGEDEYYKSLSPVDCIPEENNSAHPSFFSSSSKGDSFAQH
The assay is described as follows: Selectivity interaction (KinomeScan (DiscoverX)) EUB0000548a MYO3B. Particulars: at 1 µM.

For assay [14], the target named is Receptor-type tyrosine-protein kinase FLT3 (Homo sapiens) (UniProt P36888). The experiment in a line: Selectivity interaction (KinomeScan (DiscoverX)) EUB0000548a FLT3. Particulars: at 1 µM.
Assay [15] addresses Muscarinic acetylcholine receptor M1 (Homo sapiens, UniProt P11229). The experiment in a line: Selectivity interaction (GPCR panel (PDSP screen)) EUB0000743a CHRM1.
Assay [16] has as its target SRSF protein kinase 2 (Homo sapiens) (UniProt P78362). The assay is described as follows: Selectivity interaction (KinomeScan (DiscoverX)) EUB0000743a SRPK2. To be noted: Cellular assay (active RAS (KRAS, HRAS,NRAS) in Calu-1 cells ([…])): IC50 = 4120 nM, https://www.sgc-ffm.uni-frankfurt.d, at 1 µM.
Assay [17] addresses Megakaryocyte-associated tyrosine-protein kinase (Homo sapiens) (UniProt P42679). The experiment in a line: Selectivity interaction (KinomeScan (DiscoverX)) EUB0000743a MATK. Particulars: Cellular assay (active RAS (KRAS, HRAS,NRAS) in Calu-1 cells ([…])): IC50 = 4120 nM, https://www.sgc-ffm.uni-frankfurt.d, at 1 µM.
Assay [18] concerns the target T4, Tyrosine-protein kinase Fyn (Homo sapiens, UniProt P06241). The experiment in a line: Selectivity interaction (Kinase panel (HTRF assay)) EUB0000221b FYN. A general note: Time-resolved FRET reads energy transfer from a long-lived donor to a nearby acceptor.
For assay [19], the target named is Histone-lysine N-methyltransferase SMYD3 (Homo sapiens) (UniProt Q9H7B4). The assay is described as follows: Selectivity interaction (Methyltransferase panel) EUB0000221b SMYD3. To be noted: at 10 µM.
Histone-lysine N-methyltransferase SMYD3 (Homo sapiens), sequence (Q9H7B4 whole entry): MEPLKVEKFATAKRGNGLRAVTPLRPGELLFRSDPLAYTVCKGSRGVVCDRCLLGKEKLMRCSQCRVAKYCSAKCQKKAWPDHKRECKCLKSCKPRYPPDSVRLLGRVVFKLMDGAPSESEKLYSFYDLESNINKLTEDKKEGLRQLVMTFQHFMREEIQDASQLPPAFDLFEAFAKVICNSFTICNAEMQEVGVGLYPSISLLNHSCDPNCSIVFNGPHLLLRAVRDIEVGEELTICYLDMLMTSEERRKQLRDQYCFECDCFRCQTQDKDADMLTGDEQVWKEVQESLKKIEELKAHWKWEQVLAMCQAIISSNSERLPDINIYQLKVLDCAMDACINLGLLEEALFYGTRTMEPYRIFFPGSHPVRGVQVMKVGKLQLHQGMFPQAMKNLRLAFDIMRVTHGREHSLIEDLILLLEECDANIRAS
For assay [20], the target named is Receptor tyrosine-protein kinase erbB-2 (Homo sapiens) (UniProt P04626). The assay is described as follows: Selectivity interaction (KinomeScan (DiscoverX)) EUB0000638a ERBB2. To be noted: at 1 µM.
Receptor tyrosine-protein kinase erbB-2 (Homo sapiens), sequence (P04626 whole entry): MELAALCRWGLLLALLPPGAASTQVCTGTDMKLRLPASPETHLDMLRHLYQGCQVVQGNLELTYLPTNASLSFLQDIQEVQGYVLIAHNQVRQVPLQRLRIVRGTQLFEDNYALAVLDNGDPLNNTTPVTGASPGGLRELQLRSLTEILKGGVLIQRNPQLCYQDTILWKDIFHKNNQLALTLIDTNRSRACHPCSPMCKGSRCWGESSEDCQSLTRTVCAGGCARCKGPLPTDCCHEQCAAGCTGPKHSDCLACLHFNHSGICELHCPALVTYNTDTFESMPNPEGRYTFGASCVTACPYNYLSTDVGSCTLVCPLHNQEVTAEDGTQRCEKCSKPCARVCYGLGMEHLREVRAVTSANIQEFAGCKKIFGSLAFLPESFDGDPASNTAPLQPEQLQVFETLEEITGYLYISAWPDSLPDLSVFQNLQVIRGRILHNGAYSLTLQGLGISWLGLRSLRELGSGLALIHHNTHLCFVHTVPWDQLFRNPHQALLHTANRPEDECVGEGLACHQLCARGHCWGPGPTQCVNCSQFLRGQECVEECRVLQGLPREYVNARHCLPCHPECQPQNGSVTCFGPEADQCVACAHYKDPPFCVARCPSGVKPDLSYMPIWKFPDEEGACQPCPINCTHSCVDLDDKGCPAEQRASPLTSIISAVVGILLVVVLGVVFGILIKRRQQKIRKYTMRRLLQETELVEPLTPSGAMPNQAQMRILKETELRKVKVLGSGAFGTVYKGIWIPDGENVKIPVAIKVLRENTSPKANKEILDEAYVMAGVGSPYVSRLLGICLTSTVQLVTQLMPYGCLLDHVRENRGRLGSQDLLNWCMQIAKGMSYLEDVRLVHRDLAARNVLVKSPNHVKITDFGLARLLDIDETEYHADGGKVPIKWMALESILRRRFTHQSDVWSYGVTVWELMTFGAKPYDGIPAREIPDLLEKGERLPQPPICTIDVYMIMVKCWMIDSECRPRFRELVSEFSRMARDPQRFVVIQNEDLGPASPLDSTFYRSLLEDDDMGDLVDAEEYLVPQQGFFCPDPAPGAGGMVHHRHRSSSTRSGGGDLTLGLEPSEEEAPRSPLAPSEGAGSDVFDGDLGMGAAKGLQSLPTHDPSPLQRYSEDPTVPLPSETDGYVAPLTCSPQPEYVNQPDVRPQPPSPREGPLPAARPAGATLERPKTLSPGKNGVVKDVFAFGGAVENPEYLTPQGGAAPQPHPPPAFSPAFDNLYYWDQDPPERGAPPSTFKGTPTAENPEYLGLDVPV
The target of assay [21] is Receptor tyrosine-protein kinase erbB-4 (Homo sapiens) (UniProt Q15303). The assay is described as follows: Selectivity interaction (KinomeScan (DiscoverX)) EUB0000638a ERBB4. Particulars: at 1 µM.
Assay [22] has as its target Tyrosine-protein kinase Blk (Homo sapiens, UniProt P51451). The assay is described as follows: Selectivity interaction (Z’-LYTE assay) EUB0000638a BLK.
Assay [23] addresses Tyrosine-protein kinase Fgr (Homo sapiens, UniProt P09769). The experiment in a line: Selectivity interaction (Z’-LYTE assay) EUB0000638a FGR.
The target of assay [24] is T4, Tyrosine-protein kinase Fyn. The experiment in a line: Selectivity interaction (Z’-LYTE assay) EUB0000638a FYN.
In assay [25] the target is Tyrosine-protein kinase HCK (Homo sapiens, UniProt P08631). The experiment in a line: Selectivity interaction (Z’-LYTE assay) EUB0000638a HCK.
Assay [26] has as its target Tyrosine-protein kinase Lck (Homo sapiens, UniProt P06239). The assay is described as follows: Selectivity interaction (Z’-LYTE assay) EUB0000638a LCK.
Assay [27] deals with Tyrosine-protein kinase Lyn (Homo sapiens, UniProt P07948). The experiment in a line: Selectivity interaction (Z’-LYTE assay) EUB0000638a LYN.
Assay [28] concerns the target Proto-oncogene tyrosine-protein kinase Src (Homo sapiens, UniProt P12931). The experiment in a line: Selectivity interaction (Z’-LYTE assay) EUB0000638a SRC.
Assay [29] concerns the target Tyrosine-protein kinase Yes (Homo sapiens, UniProt P07947). The assay is described as follows: Selectivity interaction (Z’-LYTE assay) EUB0000638a YES1.
The target in assay [30] is Tyrosine-protein kinase Tec (Homo sapiens) (UniProt P42680). To be noted: at 1 µM.
Assay [31] addresses 5-hydroxytryptamine receptor 2B (Homo sapiens, UniProt P41595). The experiment in a line: Selectivity interaction (GPCR panel (PDSP screen)) EUB0000748a HTR2B.
In assay [32] the target is Sigma non-opioid intracellular receptor 1 (Homo sapiens, UniProt Q99720). The assay is described as follows: Selectivity interaction (GPCR panel (PDSP screen)) EUB0000748a SIGMAR1.
Sigma non-opioid intracellular receptor 1, sequence (Q99720 whole entry): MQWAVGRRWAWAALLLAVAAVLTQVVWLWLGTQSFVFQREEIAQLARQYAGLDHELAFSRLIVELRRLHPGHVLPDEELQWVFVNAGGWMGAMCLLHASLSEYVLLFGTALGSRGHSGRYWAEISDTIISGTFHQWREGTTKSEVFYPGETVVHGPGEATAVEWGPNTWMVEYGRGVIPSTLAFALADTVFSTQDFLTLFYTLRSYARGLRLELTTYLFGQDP

T4 sequence (P06241 whole entry): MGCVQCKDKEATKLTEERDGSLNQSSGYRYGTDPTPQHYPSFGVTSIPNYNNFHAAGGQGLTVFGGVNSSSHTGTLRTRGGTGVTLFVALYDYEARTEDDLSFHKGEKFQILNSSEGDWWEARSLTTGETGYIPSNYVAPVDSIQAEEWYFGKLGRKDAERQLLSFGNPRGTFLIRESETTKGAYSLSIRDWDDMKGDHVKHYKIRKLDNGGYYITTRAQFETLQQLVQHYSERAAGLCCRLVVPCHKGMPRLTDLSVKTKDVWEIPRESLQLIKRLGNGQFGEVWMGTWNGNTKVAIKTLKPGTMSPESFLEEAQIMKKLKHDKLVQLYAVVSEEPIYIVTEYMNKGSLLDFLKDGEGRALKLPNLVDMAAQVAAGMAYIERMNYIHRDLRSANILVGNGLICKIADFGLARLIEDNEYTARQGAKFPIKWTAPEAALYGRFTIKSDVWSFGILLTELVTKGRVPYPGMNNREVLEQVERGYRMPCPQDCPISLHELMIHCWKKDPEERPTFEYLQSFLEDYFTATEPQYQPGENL
Mitogen-activated protein kinase kinase kinase 12 (Homo sapiens), sequence (Q12852 whole entry): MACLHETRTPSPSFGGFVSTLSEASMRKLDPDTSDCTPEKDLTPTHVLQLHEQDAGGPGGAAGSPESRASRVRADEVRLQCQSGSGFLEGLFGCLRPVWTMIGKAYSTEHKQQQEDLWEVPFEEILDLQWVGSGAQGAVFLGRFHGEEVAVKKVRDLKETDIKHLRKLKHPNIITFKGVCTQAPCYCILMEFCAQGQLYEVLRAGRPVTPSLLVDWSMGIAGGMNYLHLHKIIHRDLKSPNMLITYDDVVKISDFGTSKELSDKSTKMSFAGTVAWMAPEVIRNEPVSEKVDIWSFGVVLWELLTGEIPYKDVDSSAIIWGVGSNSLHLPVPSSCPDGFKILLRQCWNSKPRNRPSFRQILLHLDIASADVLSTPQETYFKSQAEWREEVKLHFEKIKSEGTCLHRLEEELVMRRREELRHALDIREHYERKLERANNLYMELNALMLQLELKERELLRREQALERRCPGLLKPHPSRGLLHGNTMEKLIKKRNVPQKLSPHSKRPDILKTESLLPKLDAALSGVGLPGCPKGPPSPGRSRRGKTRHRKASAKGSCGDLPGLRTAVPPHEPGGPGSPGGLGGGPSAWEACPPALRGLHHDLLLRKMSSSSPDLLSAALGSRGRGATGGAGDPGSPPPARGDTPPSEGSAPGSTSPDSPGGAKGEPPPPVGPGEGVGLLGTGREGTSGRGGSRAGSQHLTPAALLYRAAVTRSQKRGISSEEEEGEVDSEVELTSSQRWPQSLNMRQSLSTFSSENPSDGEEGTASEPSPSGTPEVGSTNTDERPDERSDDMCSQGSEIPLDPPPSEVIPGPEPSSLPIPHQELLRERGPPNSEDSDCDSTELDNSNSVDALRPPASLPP
Serine/threonine-protein kinase DCLK2 (Homo sapiens), sequence (Q8N568 whole entry): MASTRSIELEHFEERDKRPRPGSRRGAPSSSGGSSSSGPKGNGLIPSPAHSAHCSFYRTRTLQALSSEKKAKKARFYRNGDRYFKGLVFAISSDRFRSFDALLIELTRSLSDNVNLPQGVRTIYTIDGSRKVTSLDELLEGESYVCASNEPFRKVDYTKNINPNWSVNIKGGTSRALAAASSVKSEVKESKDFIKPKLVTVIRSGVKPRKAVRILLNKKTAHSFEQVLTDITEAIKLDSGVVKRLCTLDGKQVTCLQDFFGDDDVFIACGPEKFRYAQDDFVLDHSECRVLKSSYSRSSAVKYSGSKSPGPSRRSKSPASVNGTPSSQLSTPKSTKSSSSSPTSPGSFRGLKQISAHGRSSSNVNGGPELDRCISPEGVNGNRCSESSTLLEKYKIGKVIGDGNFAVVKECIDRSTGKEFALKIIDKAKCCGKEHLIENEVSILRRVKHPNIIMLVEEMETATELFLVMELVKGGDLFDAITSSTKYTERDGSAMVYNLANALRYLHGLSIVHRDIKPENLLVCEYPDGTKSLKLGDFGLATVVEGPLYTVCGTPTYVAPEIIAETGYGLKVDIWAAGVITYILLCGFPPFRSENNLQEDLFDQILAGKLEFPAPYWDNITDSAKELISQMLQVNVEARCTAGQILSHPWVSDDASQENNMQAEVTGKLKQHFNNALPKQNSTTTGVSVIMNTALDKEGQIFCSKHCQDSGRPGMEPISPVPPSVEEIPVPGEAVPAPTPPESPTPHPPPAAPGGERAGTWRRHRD

`NS(=O)(=O)c1cc(NC(=O)Cc2ccccc2)ccc1Oc1cccc(Cl)c1` [BAY-1797] registered a Ki in assay [1] of 4.58 µM.
For the molecule `O=C(N1CCS(=O)(=O)CC1)N1C[C@H](c2ccc(OC(F)(F)F)cc2)C[C@H](c2nc(C3CC3)no2)C1` [BAY-386], the IC50 was 10.6 µM in [2] and more than 10 µM in assay [4]. The % of inhibition in [3] was 88%. The % of control came to 0% in [5]; 18% in [6]; 0% in [7]; 53% in [8]; 0% in assay [9]; 0% in [10].
In assay [11], `CCNC(=O)c1cc2c(N3CCOC[C@@H]3C)ccnc2n1C` yielded a Ki of 0.224 µM.
The molecule `NS(=O)(=O)c1cc(NC(=O)C2(c3ccccc3Cl)CC2)ccc1Oc1cccc(Cl)c1` [BAY-207] gave a Ki in assay [12] of 0.25 µM. Also, the results for the % of control in assay [13] and in assay [14] were 29% and 32%, respectively.
`CNCc1ccccc1-c1csc([C@H](C)Nc2nc(C)nc3cc(OC)c(OC)cc23)c1` [BAY-294] registered a Ki in assay [15] of 0.614 µM. Besides, the % of control in [16] amounted to 52%; in assay [17], 51%.
Take `C[C@H]1CC(=O)Nc2cc(C(=O)NCCC3CC3)ccc2N1C(=O)N1CC2CC2C1` (some centres not stated): the IC50 in assay [18] is 5.71 µM. The same molecule returned a % of activity remaining in assay [19] of 40%.
For the molecule `CC#CC(=O)N1CCC[C@H]1c1nc(-c2ccc(C(=O)Nc3ccccn3)cc2)c2c(N)nccn12` [ACALABRUTINIB], the values for the % of control in assay [20], in assay [21] and in [30] were 2.1%, 4.3% and 6.4%, respectively. The IC50 in [22], in assay [23], in assay [24], in assay [25], in assay [26] and in [27] was more than 10 µM throughout. In addition, the IC50 in [28] and in assay [29] was more than 10 µM in each case.
As to `Cn1c(-c2csc(C3CCN(CC4=NC5N=CC=CC5N4)CC3)n2)nc2ccccc21` (configuration not stated) [BAY-070], the values for the inhibition constant Ki in assay [31] and in assay [32] were 1.53 µM and 1.27 µM, respectively.

Usually Ki stands for the dissociation constant of the complex between target and ligand, obtained from inhibition or displacement. Read a high Ki as a looser hold on the target. A word on the IC50: it is the concentration that inhibits the measured activity by half. Read a high IC50 as weaker potency.
